Measured values from PubChem BioAssay AID330 (DTP/NCI, 2004).
Values joined by “and” are separate entries in the source; they are usually repeats but may differ in a detail not shown here. Identical values can stand only once. Inconclusive results and toxic doses are left out. The calls were made as follows: active = survival T/C of 150% or more; inactive = T/C below 125% in these data. Bridge positions count the residues as written; N and C are the ends. Peptide text beside a SMILES is read from it. I, II: the chains in the order shown. * marks the point of attachment. Cbz = O=C(OCc1ccccc1)*

Tested on: P388 leukemia ip, CD2F1 mice, survival T/C
Experiment: NCI In Vivo Anticancer Drug Screen. Data for tumor model P388 Leukemia (intraperitoneal) in CD2F1 (CDF1) mice
Conditions: endpoint: median survival time, higher = longer survival
Method in brief: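 Mice carrying the transplanted tumor received test compound or vehicle. Survival was recorded in each group, and the value is the treated-group measurement divided by that of the vehicle-treated control group.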

[1] = dose: 12.5 mg/kg/injection, schedule: Q01DX005 (ip), vehicle: Klucel (hydroxypropylcellulose) (HPC)
[2] = dose: 50.0 mg/kg/injection, schedule: Q01DX005 (ip), vehicle: Klucel (hydroxypropylcellulose) (HPC)
[3] = dose: 100.0 mg/kg/injection, schedule: Q01DX005 (ip), vehicle: Klucel (hydroxypropylcellulose) (HPC)
[4] = dose: 200.0 mg/kg/injection, schedule: Q01DX005 (ip), vehicle: Klucel (hydroxypropylcellulose) (HPC)
[5] = dose: 60.0 mg/kg/injection, schedule: Q01DX005 (ip), vehicle: saline
[6] = dose: 120.0 mg/kg/injection, schedule: Q01DX005 (ip), vehicle: saline
[7] = dose: 240.0 mg/kg/injection, schedule: Q01DX005 (ip), vehicle: saline
[8] = dose: 60.0 mg/kg/injection, schedule: Q01DX005 (ip), vehicle: saline with Tween-80
[9] = dose: 120.0 mg/kg/injection, schedule: Q01DX005 (ip), vehicle: saline with Tween-80
[10] = dose: 240.0 mg/kg/injection, schedule: Q01DX005 (ip), vehicle: saline with Tween-80
[11] = dose: 25.0 mg/kg/injection, schedule: Q01DX009 (ip), vehicle: saline
[12] = dose: 50.0 mg/kg/injection, schedule: Q01DX009 (ip), vehicle: saline
[13] = dose: 100.0 mg/kg/injection, schedule: Q01DX009 (ip), vehicle: saline
[14] = dose: 100.0 mg/kg/injection, schedule: Q01DX009 (ip), vehicle: saline with Tween-80
[15] = dose: 200.0 mg/kg/injection, schedule: Q01DX009 (ip), vehicle: saline with Tween-80
[16] = dose: 50.0 mg/kg/injection, schedule: Q01DX009 (ip), vehicle: saline with Tween-80

Measured: T/C

CC1NC(=O)C(NC(=O)OCc2ccccc2)COC(=O)C(C(C)C)NC(=O)C2CSSCC(NC1=O)C(=O)NC(C(C)C)C(=O)OCC(NC(=O)OCc1ccccc1)C(=O)NC(C)C(=O)N2 (configuration not stated) (I: Cbz-SACV / II: Cbz-SACV; ester I:1-II:C, I:C-II:1; disulfide I:3-II:3; configuration not given here)
inactive: dose: 1.25 mg/kg/injection, schedule: Q01DX005 (ip), vehicle: Klucel (hydroxypropylcellulose) (HPC) 101 % of control | dose: 2.5 mg/kg/injection, schedule: Q01DX005 (ip), vehicle: Klucel (hydroxypropylcellulose) (HPC) 101 % of control | dose: 5.0 mg/kg/injection, schedule: Q01DX005 (ip), vehicle: Klucel (hydroxypropylcellulose) (HPC) 99 % of control | dose: 10.0 mg/kg/injection, schedule: Q01DX005 (ip), vehicle: Klucel (hydroxypropylcellulose) (HPC) 96 % of control | [1] 96 % of control | dose: 25.0 mg/kg/injection, schedule: Q01DX005 (ip), vehicle: Klucel (hydroxypropylcellulose) (HPC) 96 % of control | [2] 99 % of control

N#CC(=O)c1ccccc1
inactive: dose: 3.12 mg/kg/injection, schedule: Q04DX003 (ip), vehicle: saline with Tween-80 101 % of control | dose: 6.25 mg/kg/injection, schedule: Q04DX003 (ip), vehicle: saline with Tween-80 100 % of control | dose: 12.5 mg/kg/injection, schedule: Q04DX003 (ip), vehicle: saline with Tween-80 103 % of control and 105 % of control | dose: 400.0 mg/kg/injection, schedule: Q04DX003 (ip), vehicle: saline with Tween-80 101 % of control

C=C(Br)C(=NC(C)(C)C)Nc1ccc(Cl)cc1
inactive: dose: 6.25 mg/kg/injection, schedule: Q01DX005 (ip), vehicle: Klucel (hydroxypropylcellulose) (HPC) 107 % of control | [1] 114 % of control | [2] 98 % of control | [3] 103 % of control | [4] 102 % of control

CC1(CC(=O)O)OC(c2ccccc2)=CC1=O (configuration not stated)
inactive: dose: 100.0 mg/kg/injection, schedule: Q01DX001 (ip), vehicle: Klucel (hydroxypropylcellulose) (HPC) 98 % of control | dose: 200.0 mg/kg/injection, schedule: Q01DX001 (ip), vehicle: Klucel (hydroxypropylcellulose) (HPC) 92 % of control | dose: 400.0 mg/kg/injection, schedule: Q01DX001 (ip), vehicle: Klucel (hydroxypropylcellulose) (HPC) 92 % of control

COC(=O)C1(C2CCCCCCCCCCC2=O)NC(=S)NC(=O)C1C#N (configuration not stated)
inactive: [5] 96 % of control | [6] 92 % of control | [7] 92 % of control

CCC(c1ccc(O)cc1)C(CC)c1ccc(OCC(N)=O)cc1 (configuration not stated)
inactive: [8] 92 % of control | [9] 94 % of control | [10] 94 % of control

Cc1c(C(=O)CC2OC(=O)C(Cl)=C2Cl)c2ccccc2n1C(=O)Nc1ccc(Cl)cc1 (configuration not stated)
inactive: [8] 93 % of control | [9] 99 % of control | [10] 94 % of control

C=CCOc1ccccc1C(=O)NC(O)(C(F)(F)F)C(F)(F)F
inactive: dose: 50.0 mg/kg/injection, schedule: Q04DX002 (ip), vehicle: suspension in saline 100 % of control | dose: 100.0 mg/kg/injection, schedule: Q04DX002 (ip), vehicle: suspension in saline 104 % of control | dose: 200.0 mg/kg/injection, schedule: Q04DX002 (ip), vehicle: suspension in saline 98 % of control

NC(=O)c1ccccn1
inactive: [11] 108 % of control | [12] 110 % of control | [13] 99 % of control | dose: 200.0 mg/kg/injection, schedule: Q01DX009 (ip), vehicle: saline 99 % of control

O=[N+]([O-])c1ccc(/C(=C/c2ccccc2)S(=O)(=O)C(Cl)(Cl)Cl)o1
inactive: dose: 12.5 mg/kg/injection, schedule: Q01DX009 (ip), vehicle: saline 102 % of control and 97 % of control | [11] 104 % of control and 92 % of control | [12] 104 % of control and 92 % of control | dose: 50.0 mg/kg/injection, schedule: Q01DX009 (ip), vehicle: suspension in saline 100 % of control | [13] 101 % of control and 112 % of control

c1ccc2c3c([nH]c2c1)CCCC3
inactive: dose: 50.0 mg/kg/injection, schedule: Q01DX009 (ip), vehicle: Klucel (hydroxypropylcellulose) (HPC) 102 % of control | dose: 100.0 mg/kg/injection, schedule: Q01DX009 (ip), vehicle: Klucel (hydroxypropylcellulose) (HPC) 103 % of control | dose: 200.0 mg/kg/injection, schedule: Q01DX009 (ip), vehicle: Klucel (hydroxypropylcellulose) (HPC) 111 % of control

COc1ccc(OC)c(/C=C2/C(=O)N(c3ccccc3)N=C2C)c1
inactive: dose: 60.0 mg/kg/injection, schedule: Q01DX005 (ip), vehicle: Klucel (hydroxypropylcellulose) (HPC) 107 % of control | dose: 120.0 mg/kg/injection, schedule: Q01DX005 (ip), vehicle: Klucel (hydroxypropylcellulose) (HPC) 105 % of control | dose: 240.0 mg/kg/injection, schedule: Q01DX005 (ip), vehicle: Klucel (hydroxypropylcellulose) (HPC) 107 % of control

O=C(/C=C/c1ccccc1)O[C@@H]1CC2CC1C[C@H]2c1cnc[nH]1 (some centres not stated)
inactive: dose: 25.0 mg/kg/injection, schedule: Q04DX002 (ip), vehicle: saline with Tween-80 100 % of control | dose: 50.0 mg/kg/injection, schedule: Q04DX002 (ip), vehicle: saline with Tween-80 101 % of control | dose: 100.0 mg/kg/injection, schedule: Q04DX002 (ip), vehicle: saline with Tween-80 92 % of control

C=C1CCC2C(OC(=O)C2(O)CO)C2C(=C)C(O)CC12 (configuration not stated)
inactive: dose: 9.38 mg/kg/injection, schedule: Q01DX005 (ip), vehicle: Klucel (hydroxypropylcellulose) (HPC) 103 % of control | dose: 18.75 mg/kg/injection, schedule: Q01DX005 (ip), vehicle: Klucel (hydroxypropylcellulose) (HPC) 105 % of control | dose: 37.5 mg/kg/injection, schedule: Q01DX005 (ip), vehicle: Klucel (hydroxypropylcellulose) (HPC) 100 % of control | dose: 75.0 mg/kg/injection, schedule: Q01DX005 (ip), vehicle: Klucel (hydroxypropylcellulose) (HPC) 104 % of control | dose: 150.0 mg/kg/injection, schedule: Q01DX005 (ip), vehicle: Klucel (hydroxypropylcellulose) (HPC) 113 % of control

CCC(=O)NC(N)=NC#N
inactive: [5] 99 % of control | [6] 101 % of control | [7] 98 % of control

O=C1CN=C(c2ccccn2)c2cc(Cl)ccc2N1CCO
inactive: [14] 100 % of control | [15] 105 % of control

COC(=O)[C@@H]1CC/C(=C(\C#N)C(=O)OC(C)(C)C)N1
inactive: [8] 95 % of control | [9] 96 % of control | [10] 91 % of control

CCOC(=O)c1[nH]c(=S)n(-c2ccccc2)c1C(=O)OCC
inactive: dose: 6.25 mg/kg/injection, schedule: Q01DX009 (ip), vehicle: saline with Tween-80 101 % of control | dose: 12.5 mg/kg/injection, schedule: Q01DX009 (ip), vehicle: saline with Tween-80 110 % of control | dose: 25.0 mg/kg/injection, schedule: Q01DX009 (ip), vehicle: saline with Tween-80 111 % of control | [16] 101 % of control

O=C(/C=C/c1ccc(OCc2ccccc2)cc1)c1c(F)cccc1F
inactive: [16] 99 % of control | [14] 98 % of control | [15] 100 % of control

[O-][n+]1cscc1-c1nc2ccccc2[nH]1
inactive: [2] 100 % of control | [3] 98 % of control | [4] 102 % of control

CSc1nccc(=O)n1-c1ccccc1Cl
inactive: dose: 100.0 mg/kg/injection, schedule: Q04DX003 (ip), vehicle: saline with Tween-80 109 % of control | dose: 200.0 mg/kg/injection, schedule: Q04DX003 (ip), vehicle: saline with Tween-80 114 % of control

O=C(Nc1ccccc1)N1CCOCC1
inactive: [8] 106 % of control | [9] 103 % of control | [10] 95 % of control
